Source: paper PMC9854712 (Antioxidants, 2023)

Tests used:
[1] = system: AChE; test: AChE inhibition quoted from the literature; format: biochemical; conditions: AChE IC50 ratio to 14a
[2] = system: AChE; parameters: method as in PMID 25312723; conditions: cited from earlier work
[3] = system: HT-29 cells; conditions: parent NSAIDs; cited from earlier work
[4] = system: HTB-54 cells; parameters: method as in PMID 36257283; conditions: parent NSAIDs; cited from earlier work
[5] = system: MCF-7 cells; parameters: method as in PMID 36257283; conditions: parent NSAIDs; cited from earlier work

Compound | fold lower IC50 than compound 14a [1] [fold] | IC50 [2] [µM] | fold higher IC50 than compound 14a [1] [fold] | IC50 [3] [µM] | IC50 [4] [µM] | IC50 [5] [µM]
selenepezil | 9 | 0.097 | – | – | – | –
O=c1c2ccccc2[se]n1-c1ccccc1 [Ebselen, ebselen] | – | 29 | 32 | – | – | –
COc1ccc2cc([C@H](C)C(=O)O)ccc2c1 [Naproxen, (2S)-2-(6-methoxynaphtalen-2-yl) propanoic acid] | – | – | – | > 100 | > 100 | > 100
COc1ccc2c(c1)c(CC(=O)O)c(C)n2C(=O)c1ccc(Cl)cc1 [Indomethacin, 2-[1-(4-chlorobenzoyl)-5-methoxy-2-methylindol-3-yl] acetic acid] | – | – | – | > 100 | > 100 | > 100
